We go through 2 compounds from patent US10548894B2, “Combination therapy” (Array BioPharma Inc., priority 2013, dated 2020).

SMILES strings stand for the structures.

In one data set the test system is HT-29. In words: 72 hr cell titer Glo proliferation assay, BRAFV600E mutant CRC cell lines. It is filed as cell-based. As to conditions: HT-29 (PI3Kα mutation), single agent. As for the experimental part:
(§1) Single agent and combinatorial effects on proliferation of inhibitors of RAF (Compound of Formula (I)) and PIK3Ca (Compound X) kinases in seven BRAF-mutant CRC-derived cell lines. All cell lines express the BRAFV600E protein. Cells harboring known or putative activating mutations in the PI3Kα gene are marked with a (*) and cells with PTEN loss marked with a (#). Cell proliferation was measured in 72 hr cell titer Glo™ assays and all results supplied are the result of at least triplicate measurements. Shown are single agent IC50 values for the Compound of Formula (I) and Compound X. Synergy score (SS) measurements as well as the combination index (C150) at the 50% effect level are given for each combination) in Table 6. Interactions were deemed synergistic when SS values were ≥2.0 and CI values were ≤0.5. Interactions were deemed additive/synergistic when either SS values were ≥2.0 but CI values were >0.5 or SS values were <2.0 but CI values were ≤0.5. Interactions where termed additive when SS values were <2.0 and CI values were >0.5. Synergy calls are given in the “effect description” columns.
On the technique in general: In ATP-based viability assays light output follows the ATP content of the culture.

For the next data set, the system named is SNU-C5. Described as above. As to conditions: SNU-C5 (PI3Kα mutation), single agent. It is filed as cell-based. How it is done: as §1
Another data set concerns RKO. The description is as above. It is filed as cell-based. As to conditions: RKO (PI3Kα mutation), single agent. As for the experimental part:
as §1

Another data set deals with COLO 205. The data set is described as above. The data set is classed as cell-based. Particulars: COLO 205, single agent. How it is done:
as §1

The next data set concerns CL-34. The description is as above. The data set is classed as cell-based. As to conditions: CL-34, single agent. As for the experimental part:
as §1

Another data set deals with OUMS-23. The data set is described as above. Particulars: OUMS-23 (PTEN loss), single agent. The data set is classed as cell-based. As for the experimental part:
as §1

The test system of a further data set is LS411N. The description is as above. It is filed as cell-based. Particulars: single agent. How it is done:
as §1

The subject of a further data set is SW1417. The description is as above. The data set is classed as cell-based. Particulars: SW1417, single agent. How it is done:
as §1

Data set [1] can be described thus: Clinical dose finding and tolerability (RP2D/MTD) in patients. It is filed as in vivo. As to conditions: BID, in combination with B-Raf inhibitor of Formula (I) 600 mg. An excerpt:
The selection of the starting dose follows the ICH S9 guidelines for choosing a starting a dose for a first-in-human trial conducted in patients with cancer, and is shown in Table 6-2.
Table 3 describes the starting doses and the provisional dose levels of study treatments for the combinations that may be evaluated during this trial. Additional dose levels not currently specified may be enrolled and additional patients may be enrolled at a dose level already tested if such changes are deemed necessary to provide optimal safety and tolerability, pharmacokinetic, and pharmacodynamic data.

In data set [2] the test system is WM-266-4 cells. In words: ATP-based CTG (Cell Titer Glo) cell viability assay, 72 h. Particulars: Homo sapiens, WM-266-4 parent, single agent. How it is done:
(§2) Compound stocks are prepared in DMSO at a final concentration of 10 mM. Working stocks are serially diluted in the appropriate cell culture medium in 3-fold increments to achieve final assay concentrations ranging from 2.7 μM to 1.2 nM.
(§3) A-375 and WM-266-4 cells were purchased from American Type Culture Collection (ATCC). The A-375 cells were cultured in DMEM medium (ATCC) and the WM-266-4 cells were cultured in EMEM medium (ATCC) both supplemented with 10% fetal bovine serum (Gibco) and incubated at 37° C./5% CO2. The cell lines engineered to express commonly occurring alleles indicative of resistance were acquired from Novartis-Emeryville. These resistant models include, A-375 cells expressing mutant MEK1P124L, truncated p61-BRAFV600E, or mutant NRASQ61K, and WM-266-4 cells expressing mutant MEK1C121S, truncated p61-BRAFV600E, or mutant NRASQ61K. These cells were cultured in the appropriate parental medium with selection marker G418 and in the presence of 5 uM LFE158 (MEK mutants) or LIH720 (truncated p61-BRAFV600E).
(§4) For screening, cells were seeded in 80 ul of medium in 384-well plates (Thermo Scientific, cat#4332) at 500 (A-375) or 750 (WM-266-4) cell densities per well using a MultiDrop Combi (Thermo-Fisher) with an 8-channel standard cassette. To promote an even distribution of cells across the entire well, cells were briefly centrifuged at 1000 RPM and incubated at room temperature 30 minutes. All plates were incubated at 37° C., 5% CO2 for 24 h prior to compound addition. Compound stock was freshly prepared in the appropriate culture medium, and added using a PAA robot equipped with a 200n1 pin tool. In a minimum of three replicate wells, single agent and combination effects after 72 hours, were assessed by both quantification of cellular ATP levels via Cell Titer Glo (Promega) according to the manufacturer's protocol and by microscopy imaging. For imaging, cells were fixed to the plates and permeabilized with a solution of 10% PFA, 0.3% TX-100 in PBS via a WellMate dispenser with controlled dispensing speeds. Cell nuclei were stained with Hoechst 33342 (H3570, Invitrogen), and all necessary washing steps were performed by a BioTek washer.
(§5) Data comprised triplicate measurements for each treatment (compound) condition, 42 replicates of DMSO-treated wells, and duplicates of Staurosporin-treated wells. The data was normalized to the median of the DMSO measurements and summarized by calculating the median of the triplicates. Data was imported into Chalice to calculate compound synergies.

Data set [3] has as its system WM-266-4 cells expressing mutant MEK1C121S. Described as above. As to conditions: Homo sapiens, WM-266-4 MEK1C121S, single agent. How it is done:
as §2, §3, §4, §5

Data set [4] relates to A-375 cells. Described as above. Particulars: Homo sapiens, A-375 parent, single agent. How it is done: as §2, §3, §4, §5
Data set [5] concerns A-375 cells expressing mutant MEK1P124L. The description is as above. As to conditions: Homo sapiens, A-375 MEK1P124L, single agent. As for the experimental part: as §2, §3, §4, §5
For data set [6], the system named is A-375 cells expressing mutant NRASQ61K. The description is as above. As to conditions: Homo sapiens, A-375 NRASQ61K, single agent. How it is done:
as §2, §3, §4, §5

In data set [7] the test system is WM-266-4 cells. The data set is described as follows: Microscopy imaging assay (viable nuclei count), 72 h. It is filed as cell-based. As to conditions: Homo sapiens, WM-266-4 parent, single agent. As for the experimental part:
as §2, §3, §4
(§6) An automated image analysis pipeline was established using custom-made scripts in the open-source, statistical programming language R, and functions of the BioConductor package EBImage. The goal was to quantify the number of viable nuclei (cells) per well as an approximation for cell viability. The pipeline was comprised of seven steps: (I.) smoothing of the image to reduce the number of intensity peaks, (II.) application of a thresholding function to separate the foreground (signal) from the background (noise), (III.) identification of local maxima in the foreground that serve as seeds for the nuclei, (IV.) filtering of local maxima in close proximity, (V.) propagation of the nuclei from remaining local maxima, (VI.) and extraction of object features from the propagated nuclei (numbers of nuclei, size features and intensity features). As a last step (VII.), to exclude debris (e.g. fragmented nuclei) from counting, objects identified in DMSO- and Staurosporin-treated wells were used to obtain feature distributions for viable and fragmented nuclei, respectively. These were used to set cut-offs differentiating between viable and fragmented nuclei. The number of fragmented nuclei was subtracted from the total number of identified objects and the result was reported as final count for that well.
as §5

For data set [8], the system named is WM-266-4 cells expressing mutant MEK1C121S. The data set is described as above. As to conditions: Homo sapiens, WM-266-4 MEK1C121S, single agent. The data set is classed as cell-based. As for the experimental part:
as §2, §3, §4, §6, §5

In data set [9] the test system is A-375 cells. The description is as above. It is filed as cell-based. As to conditions: Homo sapiens, A-375 parent, single agent. How it is done: as §2, §3, §4, §6, §5
Data set [10] relates to A-375 cells expressing mutant MEK1P124L. The description is as above. The data set is classed as cell-based. Particulars: Homo sapiens, A-375 MEK1P124L, single agent. How it is done: as §2, §3, §4, §6, §5
The test system of data set [11] is A-375 cells expressing mutant NRASQ61K. The data set is described as above. The data set is classed as cell-based. As to conditions: Homo sapiens, A-375 NRASQ61K, single agent. How it is done:
as §2, §3, §4, §6, §5

One may read the IC50 as the concentration that gives 50% inhibition. As to `Cc1nc(NC(=O)N2CCC[C@H]2C(N)=O)sc1-c1ccnc(C(C)(C)C(F)(F)F)c1` [Compound X, (S)-Pyrrolidine-1,2-dicarboxylic acid 2-amide 1-({4-methyl-5-[2-(2,2,2-trifluoro-1,1-dimethyl-ethyl)-pyridin-4-yl]-thiazol-2-yl}-amide)], the IC50 with HT-29, in the data set on SNU-C5, in the data set with RKO, in the data set with COLO 205, with CL-34 and with OUMS-23 was > 2700 nM throughout. Besides, the IC50 in the data set on LS411N and in the data set on SW1417 was > 2700 nM throughout.

As to `Cn1cnc2c(F)c(Nc3ccc(Br)cc3F)c(C(=O)NOCCO)cc21` [Compound B], the RP2D in data set [1] is listed as 45 mg. For the same compound, the concentration for half-maximal inhibition (IC50) in the data set with WM-266-4 cells [2] was 50 nM; in data set [3] it was 821 nM; in the data set on A-375 cells [4], 51 nM; in [5], > 2700 nM; in data set [6], 206 nM; in the data set with WM-266-4 cells [7], 77 nM. In addition, the IC50 was 1210 nM in data set [8], 57 nM with A-375 cells [9], > 2700 nM in data set [10] and 150 nM in data set [11].
